≈ marks a conversion by molar mass, not a printed value.
Legend:
[1] = Cytotoxicity against human MCF7 cells assessed as growth inhibition at 10 ug/ml after 48 hrs by MTT assay relative to control; assay type: cell-based; conditions: read-out: GI
[2] = Cytotoxicity against human HCT116 cells assessed as growth inhibition at 30 ug/ml after 48 hrs by MTT assay relative to control; assay type: cell-based, HCT-116; conditions: read-out: GI
[3] = system: Mycobacterium tuberculosis; assay: Antimycobacterial activity against dormant state of Mycobacterium tuberculosis H37Ra assessed as growth inhibition at 3 ug/ml after 12 days by XTT reduction menadione assay relative to control; assay type: functional; conditions: 288 h, read-out: GI
[4] = Cytotoxicity against human A549 cells assessed as growth inhibition at 30 ug/ml after 48 hrs by MTT assay relative to control; assay type: cell-based; conditions: read-out: GI
[5] = system: Mycobacterium tuberculosis; assay: Antimycobacterial activity against dormant state of Mycobacterium tuberculosis H37Ra assessed as growth inhibition at 30 ug/ml after 12 days by XTT reduction menadione assay relative to control; assay type: functional; conditions: 288 h, read-out: GI
[6] = Cytotoxicity against human MCF7 cells assessed as growth inhibition at 30 ug/ml after 48 hrs by MTT assay relative to control; assay type: cell-based; conditions: read-out: GI
[7] = system: Mycobacterium tuberculosis; assay: Antimycobacterial activity against dormant state of Mycobacterium tuberculosis H37Ra assessed as growth inhibition at 10 ug/ml after 12 days by XTT reduction menadione assay relative to control; assay type: functional; conditions: 288 h, read-out: GI
[8] = Cytotoxicity against human A549 cells assessed as growth inhibition at 3 ug/ml after 48 hrs by MTT assay relative to control; assay type: cell-based; conditions: read-out: GI
[9] = Cytotoxicity against human A549 cells assessed as growth inhibition at 10 ug/ml after 48 hrs by MTT assay relative to control; assay type: cell-based; conditions: read-out: GI
[10] = Cytotoxicity against human HCT116 cells assessed as growth inhibition at 3 ug/ml after 48 hrs by MTT assay relative to control; assay type: cell-based, HCT-116; conditions: read-out: GI
[11] = system: Mycobacterium tuberculosis; assay: Antimycobacterial activity against dormant state of Mycobacterium tuberculosis H37Ra by two fold dilution method; assay type: functional
[12] = Cytotoxicity against human HCT116 cells assessed as growth inhibition at 10 ug/ml after 48 hrs by MTT assay relative to control; assay type: cell-based, HCT-116; conditions: read-out: GI
[13] = Cytotoxicity against human MCF7 cells assessed as growth inhibition at 3 ug/ml after 48 hrs by MTT assay relative to control; assay type: cell-based; conditions: read-out: GI
Escherichia coli = assay: Antibacterial activity against Escherichia coli ATCC […] after 8 hrs; assay type: functional
A549 = assay: (§1) Cytotoxicity against human A549 cells assessed as growth inhibition after 48 hrs by MTT assay; assay type: cell-based; conditions: a549, 48 h
[14] = as §1; assay type: cell-based; conditions: A549 cells
Staphylococcus aureus = assay: Antibacterial activity against Staphylococcus aureus ATCC 29213 after 12 hrs; assay type: functional; conditions: ATCC 29213, 12 h
HCT-116 = assay: (§2) Cytotoxicity against human HCT116 cells assessed as growth inhibition after 48 hrs by MTT assay; assay type: cell-based; conditions: hct-116, 48 h
[15] = as §2; assay type: cell-based, HCT-116; conditions: HCT116 cells
Pseudomonas fluorescens = assay: Antibacterial activity against Pseudomonas fluorescens ATCC 13525 after 8 hrs; assay type: functional; conditions: ATCC 13525, 8 h
Bacillus subtilis = assay: Antibacterial activity against Bacillus subtilis ATCC 23857 after 12 hrs; assay type: functional; conditions: ATCC 23857, 12 h
MCF7 = assay: (§3) Cytotoxicity against human MCF7 cells assessed as growth inhibition after 48 hrs by MTT assay; assay type: cell-based; conditions: mcf7, 48 h
[16] = as §3; assay type: cell-based; conditions: MCF7 cells

Structure (SMILES)	inhibition at 48 h, 10 ug/ml [1] [%]	inhibition at 48 h, 30 ug/ml [2] [%]	inhibition of growth at 3 µg/mL [3] [%]	inhibition at 48 h, 30 ug/ml [4] [%]	inhibition of growth at 30 µg/mL [5] [%]	inhibition at 48 h, 30 ug/ml [6] [%]	inhibition of growth at 10 µg/mL [7] [%]	inhibition at 48 h, 3 ug/ml [8] [%]	inhibition at 48 h, 10 ug/ml [9] [%]	inhibition at 48 h, 3 ug/ml [10] [%]	MIC50 [11] [µg/mL]	MIC90 [11] [µg/mL]	inhibition at 48 h, 10 ug/ml [12] [%]	inhibition at 48 h, 3 ug/ml [13] [%]	other results
O=C1/C(=C/c2cc3ccccc3nc2Cl)CNC/C1=C\c1cc2ccccc2nc1Cl	23.2	0	9.6	-14.1	33.3	26.3	43.6	0	0	0	> 30	> 30	0	22.2	
CN1C/C(=C\c2cc3cc(Cl)ccc3nc2Cl)C(=O)/C(=C/c2cc3cc(Cl)ccc3nc2Cl)C1	42.8	11.7	35.4	48.9	43.1	58.7	7.2	0	48.9	2	> 30	> 30	11.9	22.8	MIC50 (Escherichia coli): > 30 µg/mL; MIC90 (Escherichia coli): > 30 µg/mL; GI90 (A549): > 100 µg/mL; GI50 at 48 h [14]: > 100 µg/mL; MIC50 (Staphylococcus aureus): > 30 µg/mL; MIC90 (Staphylococcus aureus): > 30 µg/mL; GI90 (HCT-116): > 100 µg/mL; GI50 at 48 h [15]: > 100 µg/mL; MIC50 (Pseudomonas fluorescens): > 30 µg/mL; MIC90 (Pseudomonas fluorescens): > 30 µg/mL; MIC50 (Bacillus subtilis): > 30 µg/mL; MIC90 (Bacillus subtilis): > 30 µg/mL; GI90 (MCF7): > 100 µg/mL; GI50 at 48 h [16]: 29.8 µg/mL (≈ 56.3 µM)
O=C1/C(=C/c2cc3cc(Cl)ccc3nc2Cl)CNC/C1=C\c1cc2cc(Cl)ccc2nc1Cl	22.8	-14.5	23.7	-12	53.8	50	24.5	2.3	0	-18.3	27.8 (≈ 54 µM)	> 30	-22.2	14.3	
Cc1cccc2cc(/C=C3\CN(C)C/C(=C\c4cc5cccc(C)c5nc4Cl)C3=O)c(Cl)nc12	0	1.6	22.4	-20.4	51.5	0	15.3	-11	0	-4.3	27 (≈ 55.3 µM)	> 30	4.1	0	
Cc1ccc2nc(Cl)c(/C=C3\CN(C)C/C(=C\c4cc5cc(C)ccc5nc4Cl)C3=O)cc2c1	18.7	16.5	-18.6	0	36.8	44.8	15.6	0	0	12.5	> 30	> 30	10.5	1.7	
Cc1cccc2cc(/C=C3\CNC/C(=C\c4cc5cccc(C)c5nc4Cl)C3=O)c(Cl)nc12	0	13.7	4.6	-13.9	12.6	0	32.7	0	0	3.2	> 30	> 30	10.4	0	
CN1C/C(=C\c2cc3cc(F)ccc3nc2Cl)C(=O)/C(=C/c2cc3cc(F)ccc3nc2Cl)C1	-0.6	12.7	39.7	0	34.1	32.3	14.7	0	0	-0.4	> 30	> 30	10.3	7.8	
Cc1ccc2nc(Cl)c(/C=C3\CNC/C(=C\c4cc5cc(C)ccc5nc4Cl)C3=O)cc2c1	17.7	21.8	9.9	0	34.4	14.2	28.5	-18.7	0	5.5	> 30	> 30	16.3	0.9	
Cc1ccc2cc(/C=C3\CN(C)C/C(=C\c4cc5ccc(C)cc5nc4Cl)C3=O)c(Cl)nc2c1	52	27.4	-17.1	45.7	98.6	63.7	81.7	30.2	34.6	12.9	7.7 (≈ 15.8 µM)	20 (≈ 40.9 µM)	13.7	46.1	MIC50 (Escherichia coli): > 30 µg/mL; MIC90 (Escherichia coli): > 30 µg/mL; GI90 (A549): > 100 µg/mL; GI50 at 48 h [14]: > 100 µg/mL; MIC50 (Staphylococcus aureus): > 30 µg/mL; MIC90 (Staphylococcus aureus): > 30 µg/mL; GI90 (HCT-116): > 100 µg/mL; GI50 at 48 h [15]: > 100 µg/mL; MIC50 (Pseudomonas fluorescens): > 30 µg/mL; MIC90 (Pseudomonas fluorescens): > 30 µg/mL; MIC50 (Bacillus subtilis): > 30 µg/mL; MIC90 (Bacillus subtilis): > 30 µg/mL; GI90 (MCF7): > 100 µg/mL; GI50 at 48 h [16]: 8.23 µg/mL (≈ 16.9 µM)
COc1ccc2nc(Cl)c(/C=C3\CN(C)C/C(=C\c4cc5cc(OC)ccc5nc4Cl)C3=O)cc2c1	-7.4	10.2	52	0	-0.8	39	-5.8	0	0	-2.1	> 30	> 30	12.2	-7.1	
NC[C@H]1O[C@H](O[C@H]2[C@H](O)[C@@H](O[C@H]3O[C@H](CO)[C@@H](O)[C@H](N)[C@H]3O)[C@H](N)C[C@@H]2N)[C@H](O)[C@@H](O)[C@@H]1O [KANAMYCIN]															MIC50 (Staphylococcus aureus): > 30 µg/mL; MIC90 (Staphylococcus aureus): 16 µg/mL (≈ 33 µM)
CC(=O)O[C@H]1C(=O)[C@@]2(C)[C@H]([C@H](OC(=O)c3ccccc3)[C@]3(O)C[C@H](OC(=O)[C@H](O)[C@@H](NC(=O)c4ccccc4)c4ccccc4)C(C)=C1C3(C)C)[C@]1(OC(C)=O)CO[C@@H]1C[C@@H]2O [PACLITAXEL]															GI90 (A549): 0.0706 µg/mL (≈ 0.0827 µM); GI90 (HCT-116): 5.715 µg/mL (≈ 6.69 µM); GI50 at 48 h [15]: 0.128 µg/mL (≈ 0.15 µM); GI90 (MCF7): 0.075 µg/mL (≈ 0.0878 µM)

From ChEMBL document CHEMBL4002627, “Quinolidene based monocarbonyl curcumin analogues as promising antimycobacterial agents: Synthesis and molecular docking study” (Bioorg Med Chem Lett, 2017)
